Reference: patent US10988523B2, “Modified lipidated Relaxin B chain peptides and their therapeutic use” (Sanofi, priority 2018, dated 2021)
*1 amine or outer side, *2 acyl side, *3 side chain or, on linkers, in order; H or OH if unused. Where a SMILES comes first, the peptide text is derived from it. Side-chain parts run from the residue outwards. [ ]: non-standard residue; d: D form. The star is where a group is joined. γGlu = O=C(O)[C@H](CCC(=O)[*:2])N[*:1]; Stearoyl = CCCCCCCCCCCCCCCCCC(=O)*; Palmitoyl = CCCCCCCCCCCCCCCC(=O)*; Nle = CCCC[C@H](N)C(=O)O; AEEA = NCCOCCOCC(=O)O; Aib = CC(C)(N)C(=O)O

Molecular target: T1, RXFP1 (Homo sapiens, UniProt Q9HBX9)
T1 construct: OVCAR5 cells expressing endogenous RXFP1; endogenous in cells; host or cells: OVCAR5 cells
T1 sequence (Q9HBX9 1-757): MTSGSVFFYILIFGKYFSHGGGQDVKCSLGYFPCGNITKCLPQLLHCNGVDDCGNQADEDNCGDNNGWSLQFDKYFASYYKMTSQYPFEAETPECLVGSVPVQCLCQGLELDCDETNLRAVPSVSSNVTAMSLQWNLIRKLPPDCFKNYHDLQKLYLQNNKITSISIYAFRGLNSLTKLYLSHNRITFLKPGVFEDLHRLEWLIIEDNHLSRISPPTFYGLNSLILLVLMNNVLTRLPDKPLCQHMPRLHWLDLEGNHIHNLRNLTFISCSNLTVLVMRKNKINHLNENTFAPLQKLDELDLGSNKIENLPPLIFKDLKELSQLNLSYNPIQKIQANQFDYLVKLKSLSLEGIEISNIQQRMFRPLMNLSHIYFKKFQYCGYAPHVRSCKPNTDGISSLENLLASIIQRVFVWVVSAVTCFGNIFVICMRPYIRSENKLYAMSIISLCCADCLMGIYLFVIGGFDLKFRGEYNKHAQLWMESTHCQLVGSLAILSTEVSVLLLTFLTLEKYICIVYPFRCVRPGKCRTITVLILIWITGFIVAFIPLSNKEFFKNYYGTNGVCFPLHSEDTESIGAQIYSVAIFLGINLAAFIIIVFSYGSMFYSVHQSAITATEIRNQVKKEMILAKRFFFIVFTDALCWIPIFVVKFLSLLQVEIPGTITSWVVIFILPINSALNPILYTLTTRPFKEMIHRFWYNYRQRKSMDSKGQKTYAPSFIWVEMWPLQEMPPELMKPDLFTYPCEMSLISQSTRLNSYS
Assay: OVCAR5 cAMP assay (HTRF), RXFP1 agonist activity
Assay type: cell-based
Conditions: for Emax: OVCAR-5, maximal cAMP relative to H2-relaxin maximum (100%), read-out: EMax, OVCAR 5 cells (cAMP); for EC50: OVCAR5 cells, cAMP HTRF, read-out: EC50 (nM), OVCAR 5 cells (cAMP)
Summary of the method: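 OVCAR5 cells (endogenous RXFP1) pretreated 40 min at 37° C with 1 mM IBMX, then exposed to peptides in serum-free medium for 30 min at 37° C. Lysate cAMP read by HTRF; EC50 from variable-slope sigmoidal fit; Emax as % of H2-relaxin maximal cAMP in same run.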

Row | Structure (SMILES) | Emax [%] | EC50 [nM]
1 | CCCCCCCCCCCCCCCCCC(=O)N[C@@H](CCC(=O)NCCOCCOCC(=O)NCCOCCOCC(=O)NCCOCCOCC(=O)N[C@@H](CCC(=O)N[C@@H](CCC(=O)NCCCC[C@H](NC(=O)[C@H](CCCCN)NC(=O)[C@H](CCCCN)NC(=O)[C@H](CCCNC(=N)N)NC(=O)C(C)(C)NC(=O)[C@H](CO)NC(=O)[C@H](Cc1c[nH]c2ccccc12)NC(=O)[C@@H](NC(=O)[C@H](CO)NC(=O)[C@H](CCCC)NC(=O)CNC(=O)[C@H](CCC(=O)O)NC(=O)C(C)(C)NC(=O)C(C)(C)NC(=O)[C@@H](NC(=O)[C@H](CCC(N)=O)NC(=O)[C@H](C)NC(=O)[C@H](CCCNC(=N)N)NC(=O)[C@@H](NC(=O)[C@H](CCCCN)NC(=O)[C@H](CCC(=O)O)NC(=O)[C@H](CCCNC(=N)N)NC(=O)CNC(=O)[C@H](CCC(=O)O)NC(=O)[C@H](CC(C)C)NC(C)=O)C(C)C)[C@@H](C)CC)[C@@H](C)O)C(N)=O)C(=O)O)C(=O)O)C(=O)O [compound 106] (Ac-LEGREKVRAQI[Aib][Aib]EG[Nle]STWS[Aib]RKKK([γGlu-γGlu-AEEA-AEEA-AEEA-γGlu-Stearoyl])-NH2) | 93 | –
2 | CCCCCCCCCCCCCCCCCC(=O)N[C@@H](CCC(=O)N[C@@H](CCC(=O)N[C@@H](CCC(=O)NCCOCCOCC(=O)NCCOCCOCC(=O)NCCOCCOCC(=O)NCCCC[C@H](NC(=O)[C@H](CCCCNC(C)=O)NC(=O)[C@H](CCCCN)NC(=O)[C@H](CCCNC(=N)N)NC(=O)C(C)(C)NC(=O)[C@H](CO)NC(=O)[C@H](Cc1c[nH]c2ccccc12)NC(=O)[C@@H](NC(=O)[C@H](CO)NC(=O)[C@H](CCC(N)=O)NC(=O)CNC(=O)[C@H](CCC(=O)O)NC(=O)C(C)(C)NC(=O)C(C)(C)NC(=O)[C@@H](NC(=O)[C@H](CCCCNC(C)=O)NC(=O)[C@H](C)NC(=O)[C@H](CCCNC(=N)N)NC(=O)[C@@H](NC(=O)[C@H](CCCCN)NC(=O)[C@H](CCC(=O)O)NC(=O)[C@H](CCCNC(=N)N)NC(=O)CNC(=O)[C@H](CCC(=O)O)NC(=O)[C@H](CC(C)C)NC(C)=O)C(C)C)[C@@H](C)CC)[C@@H](C)O)C(N)=O)C(=O)O)C(=O)O)C(=O)O [compound 113] (Ac-LEGREKVRAK(Ac)I[Aib][Aib]EGQSTWS[Aib]RKK(Ac)K([AEEA-AEEA-AEEA-γGlu-γGlu-γGlu-Stearoyl])-NH2) | 89 | –
3 | CCCCCCCCCCCCCCCC(=O)N[C@@H](CCC(=O)N[C@@H](CCC(=O)N[C@@H](CCC(=O)NCCCC[C@H](NC(=O)COCCOCCNC(=O)COCCOCCNC(=O)COCCOCCNC(=O)[C@H](CCCCNC(C)=O)NC(=O)[C@H](CCCCN)NC(=O)[C@H](CCCNC(=N)N)NC(=O)C(C)(C)NC(=O)[C@H](CO)NC(=O)[C@H](Cc1c[nH]c2ccccc12)NC(=O)[C@@H](NC(=O)[C@H](CO)NC(=O)[C@H](CCCC)NC(=O)CNC(=O)[C@H](CCC(=O)O)NC(=O)C(C)(C)NC(=O)C(C)(C)NC(=O)[C@@H](NC(=O)[C@H](CCCCNC(C)=O)NC(=O)[C@H](C)NC(=O)[C@H](CCCNC(=N)N)NC(=O)[C@@H](NC(=O)[C@H](CCCCN)NC(=O)[C@H](CCC(=O)O)NC(=O)[C@H](CCCNC(=N)N)NC(=O)CNC(=O)[C@H](CCC(=O)O)NC(=O)[C@H](CC(C)C)NC(C)=O)C(C)C)[C@@H](C)CC)[C@@H](C)O)C(N)=O)C(=O)O)C(=O)O)C(=O)O [compound 114] (Ac-LEGREKVRAK(Ac)I[Aib][Aib]EG[Nle]STWS[Aib]RKK(Ac)[AEEA][AEEA][AEEA]K([γGlu-γGlu-γGlu-Palmitoyl])-NH2) | 90 | –
4 | CCCCCCCCCCCCCCCCCC(=O)N[C@@H](CCC(=O)N[C@@H](CCC(=O)N[C@@H](CCC(=O)N[C@@H](CCC(=O)NCCOCCOCC(=O)NCCOCCOCC(=O)NCCOCCOCC(=O)NCCCC[C@H](NC(=O)[C@H](CCCCN)NC(=O)[C@H](CCCCN)NC(=O)[C@H](CCCNC(=N)N)NC(=O)C(C)(C)NC(=O)[C@H](CO)NC(=O)[C@H](Cc1c[nH]c2ccccc12)NC(=O)[C@@H](NC(=O)[C@H](CO)NC(=O)[C@H](CCC(N)=O)NC(=O)CNC(=O)[C@H](CCC(=O)O)NC(=O)C(C)(C)NC(=O)C(C)(C)NC(=O)[C@@H](NC(=O)[C@H](CCCCNC(C)=O)NC(=O)[C@H](C)NC(=O)[C@H](CCCNC(=N)N)NC(=O)[C@@H](NC(=O)[C@H](CCCCN)NC(=O)[C@H](CCC(=O)O)NC(=O)[C@H](CCCNC(=N)N)NC(=O)CNC(=O)[C@H](CCC(=O)O)NC(=O)[C@H](CC(C)C)NC(C)=O)C(C)C)[C@@H](C)CC)[C@@H](C)O)C(N)=O)C(=O)O)C(=O)O)C(=O)O)C(=O)O [compound 115] (Ac-LEGREKVRAK(Ac)I[Aib][Aib]EGQSTWS[Aib]RKKK([AEEA-AEEA-AEEA-γGlu-γGlu-γGlu-γGlu-Stearoyl])-NH2) | 93 | 0.17

The remaining lines, values ahead:

Row | Emax [%] | EC50 [nM] | Structure (SMILES)
5 | 94 | 0.15 | CCCCCCCCCCCCCCCC(=O)N[C@@H](CCC(=O)NCCCC[C@H](NC(=O)CC[C@H](NC(=O)CC[C@H](NC(=O)CC[C@H](NC(=O)COCCOCCNC(=O)COCCOCCNC(=O)COCCOCCNC(=O)COCCOCCNC(=O)[C@H](CCCCN)NC(=O)[C@H](CCCCN)NC(=O)[C@H](CCCCN)NC(=O)[C@H](CCCNC(=N)N)NC(=O)C(C)(C)NC(=O)[C@H](CO)NC(=O)[C@H](Cc1c[nH]c2ccccc12)NC(=O)[C@@H](NC(=O)[C@H](CO)NC(=O)[C@H](CCCC)NC(=O)CNC(=O)[C@H](CCC(=O)O)NC(=O)C(C)(C)NC(=O)C(C)(C)NC(=O)[C@@H](NC(=O)[C@H](CCC(N)=O)NC(=O)[C@H](C)NC(=O)[C@H](CCCNC(=N)N)NC(=O)[C@@H](NC(=O)[C@H](CCCCN)NC(=O)[C@H](CCC(=O)O)NC(=O)[C@H](CCCNC(=N)N)NC(=O)CNC(=O)[C@H](CCC(=O)O)NC(=O)[C@H](CC(C)C)NC(C)=O)C(C)C)[C@@H](C)CC)[C@@H](C)O)C(=O)O)C(=O)O)C(=O)O)C(N)=O)C(=O)O [compound 108] (Ac-LEGREKVRAQI[Aib][Aib]EG[Nle]STWS[Aib]RKKK[AEEA][AEEA][AEEA][AEEA][γGlu][γGlu][γGlu]K([γGlu-Palmitoyl])-NH2)
6 | 92 | 0.21 | CCCCCCCCCCCCCCCCCC(=O)N[C@@H](CCC(=O)N[C@@H](CCC(=O)N[C@@H](CCC(=O)N[C@@H](CCC(=O)N[C@@H](CCC(=O)NCCOCCOCC(=O)NCCOCCOCC(=O)NCCOCCOCC(=O)NCCCC[C@H](NC(=O)[C@H](CCCCN)NC(=O)[C@H](CCCCN)NC(=O)[C@H](CCCNC(=N)N)NC(=O)C(C)(C)NC(=O)[C@H](CO)NC(=O)[C@H](Cc1c[nH]c2ccccc12)NC(=O)[C@@H](NC(=O)[C@H](CO)NC(=O)[C@H](CCC(N)=O)NC(=O)CNC(=O)[C@H](CCC(=O)O)NC(=O)C(C)(C)NC(=O)C(C)(C)NC(=O)[C@@H](NC(=O)[C@H](CCCCNC(C)=O)NC(=O)[C@H](C)NC(=O)[C@H](CCCNC(=N)N)NC(=O)[C@@H](NC(=O)[C@H](CCCCN)NC(=O)[C@H](CCC(=O)O)NC(=O)[C@H](CCCNC(=N)N)NC(=O)CNC(=O)[C@H](CCC(=O)O)NC(=O)[C@H](CC(C)C)NC(C)=O)C(C)C)[C@@H](C)CC)[C@@H](C)O)C(N)=O)C(=O)O)C(=O)O)C(=O)O)C(=O)O)C(=O)O [compound 111] (Ac-LEGREKVRAK(Ac)I[Aib][Aib]EGQSTWS[Aib]RKKK([AEEA-AEEA-AEEA-γGlu-γGlu-γGlu-γGlu-γGlu-Stearoyl])-NH2)
